Consider six molecules from ChEMBL document CHEMBL1667861, “Kinetic and docking studies of phenol-based inhibitors of carbonic anhydrase isoforms I, II, IX and XII evidence a new binding mode within the enzyme active site” (Bioorg Med Chem, 2011).

One assay deals with Carbonic anhydrase 9 (Homo sapiens, UniProt Q16790). The assay can be described thus: Inhibition of human carbonic anhydrase 9 preincubated for 15 mins by CO2 hydration stopped-flow assay.
For a further assay, the target named is Carbonic anhydrase 2 (Homo sapiens, UniProt P00918). The assay can be described thus: Inhibition of human carbonic anhydrase 2 preincubated for 15 mins by CO2 hydration stopped-flow assay.
The target of the next assay is Carbonic anhydrase 1 (Homo sapiens, UniProt P00915). The assay can be described thus: Inhibition of human carbonic anhydrase 1 preincubated for 15 mins by CO2 hydration stopped-flow assay.
Carbonic anhydrase 1, sequence (P00915 whole entry): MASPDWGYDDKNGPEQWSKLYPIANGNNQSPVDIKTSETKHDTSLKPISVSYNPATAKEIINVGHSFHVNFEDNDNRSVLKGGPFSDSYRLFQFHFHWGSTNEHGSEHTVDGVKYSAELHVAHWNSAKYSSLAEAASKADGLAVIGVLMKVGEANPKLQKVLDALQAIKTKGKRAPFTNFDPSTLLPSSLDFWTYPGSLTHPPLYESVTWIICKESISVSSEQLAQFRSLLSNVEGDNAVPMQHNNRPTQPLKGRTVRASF
The next assay addresses Carbonic anhydrase 12 (Homo sapiens, UniProt O43570).

As a reminder, the Ki is the equilibrium dissociation constant of an inhibitor or competing ligand from its target. High values mean a looser hold on the target, low ones a stronger hold on the target.

Carbonic anhydrase 12, sequence (O43570 whole entry): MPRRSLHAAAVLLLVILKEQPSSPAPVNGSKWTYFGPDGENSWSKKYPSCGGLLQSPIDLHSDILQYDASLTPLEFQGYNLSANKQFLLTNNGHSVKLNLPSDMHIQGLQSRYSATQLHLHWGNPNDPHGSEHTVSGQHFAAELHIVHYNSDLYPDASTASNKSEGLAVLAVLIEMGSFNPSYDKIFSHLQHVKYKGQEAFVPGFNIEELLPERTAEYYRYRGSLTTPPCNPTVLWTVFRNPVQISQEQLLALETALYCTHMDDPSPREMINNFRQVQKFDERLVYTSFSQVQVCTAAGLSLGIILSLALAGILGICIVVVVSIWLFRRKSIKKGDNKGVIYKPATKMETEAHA

As for `COc1ccc(OC)c(OC)c1` [1,2,4-TRIMETHOXYBENZENE], the Ki on Carbonic anhydrase 9 was determined as 4.06 µM.
Molecule `COc1ccc(OC)cc1` [1,4-DIMETHOXYBENZENE] gave a Ki on Carbonic anhydrase 2 of 3.35 µM.
`O=C(O)c1cc(O)cc(O)c1` [3,5-DIHYDROXYBENZOIC ACID]: the values for the Ki on Carbonic anhydrase 1, on Carbonic anhydrase 12 and on Carbonic anhydrase 9 were 0.55 µM, 3.67 µM and 4.41 µM, respectively.
Consider `O=C(O)c1cccc(O)c1` [3-HYDROXYBENZOIC ACID], for which the inhibitory constant (Ki) at Carbonic anhydrase 1 was 2.37 µM; on Carbonic anhydrase 12 it was 3.53 µM; at Carbonic anhydrase 2 it was 0.6 µM; on Carbonic anhydrase 9, 4.53 µM.
`O=C(O)c1ccc(O)c(O)c1` [PROTOCATECHUIC ACID]: the Ki on Carbonic anhydrase 1 amounted to 1.08 µM; on Carbonic anhydrase 12 it was 4.09 µM; on Carbonic anhydrase 9, 4.45 µM.
Regarding `COc1ccc(C(=O)O)cc1OC` [VERATRIC ACID], the Ki at Carbonic anhydrase 1 came to 6.83 µM; on Carbonic anhydrase 12, 6.7 µM; at Carbonic anhydrase 2 it was 6.18 µM; on Carbonic anhydrase 9, 8.25 µM.
